Experimental findings from patent publication US5703092A, “Hydroxamic acid compounds as metalloprotease and TNF inhibitors” (The DuPont Merck Pharmaceutical Company, priority 1996, dated 1997) are described below.

The nature of data set [1]: Ex Vivo Assay for Bioavailability of MMP-3 Inhibitors (plasma level after dosing). In kind it is in vivo. To be noted: rat, po; rats, dosed orally at 100 mg/kg; plasma level read via MMP-3 inhibition against a spiked plasma standard curve. The procedure:
Ex Vivo Assay for Bioavailability of MMP-3 Inhibitors
Blood was collected by cardiac puncture from rats at different times after dosing I.V., I.P., or P.O. with compound in order to determine the levels of inhibitor present. Plasma was extracted with 10% TCA in 95% methanol, and placed on ice for 10 minutes. The plasma was then centrifuged for 15 minutes at 14,000 rpm in an Eppendorf microcentrifuge. The supernatant was removed, recentrifuged, and the resulting supernatant was diluted 1:10 in 50 mM tricine, pH 8.5. The pH of the sample was adjusted to 7.5, and then assayed in the MMP-3 substance P fluorescent enzymatic assay. Plasma from naive rats was extracted by the same method and used as a negative control. This plasma was also used to prepare a spiked plasma curve of the compound of interest. Known concentrations of the compound were added to control plasma, the plasma was extracted by the same method, and then assayed in the MMP-3 enzymatic assay. A standard curve was prepared that related percent inhbition in the MMP-3 assay to the concentration of drug added in the spiked samples. Based on the percent inhibition in the presence of plasma from dosed rats, the concentration of compound was determined using the standard curve.

Data set [2] concerns truncated MMP-3. The experiment in a line: Bisacetylated Substance P/MMP-3 Fluorescent Assay. In kind it is biochemical. To be noted: bisacetylated substrate with MMP-3. From the text:
Bisacetylated Substance P/MMP-3 Fluorescent Assay
A high capacity enzymatic assay was developed to detect potential inhibitors of MMP-3. The assay uses a derivative of a peptide substrate, substance P (Arg-Pro-Lys-Pro-Gln-Gln-Phe-Phe-Gly-Leu-Met), which is cleaved by MMP-3 exclusively at the glutamine-phenylalanine bond. In order to adapt this assay for high throughput screening, we have developed a fluorimetric method of product detection. The production of the hydrolysis product, substance P 7-11, is measured by reaction with fluorescamine, a fluorogenic compound which reacts with the primary amine of this fragment. The substance P substrate is bisacetylated to block the primary amines of the intact substrate. Thus, the resulting fluorescence represents generation of product (7-11 peptide) formed upon cleavage by MMP-3, and is quantitated using a standard curve prepared with known concentrations of 7-11 peptide.
To evaluate inhibition of MMP-3, compounds were prepared at a concentration of 10 mM in 100% methanol, and then further diluted to a 20× molar stock. Five microliters of each drug stock was added to the assay in the presence of 20 nM truncated MMP-3 in 67.5 mM tricine (pH 7.5), 10 mM CaCl2, 40 mM NaCl, and 0.005% Brij 35 in a final volume of 100 microliters. Bisacetylated substance P ([…]) was added, and the assay was run for 1 hour at 25° C. […]

Sequence of truncated MMP-3 (P08254 100-272 limits assumed): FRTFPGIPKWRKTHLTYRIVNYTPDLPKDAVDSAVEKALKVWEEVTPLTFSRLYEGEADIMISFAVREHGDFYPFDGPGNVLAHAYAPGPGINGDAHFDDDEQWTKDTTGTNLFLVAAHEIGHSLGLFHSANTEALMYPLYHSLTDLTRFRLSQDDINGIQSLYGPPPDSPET

For orientation: Cmax means the maximum level reached in the sampled fluid or tissue. In data set [1], `CC(C)C[C@@H](C(=O)N[C@H](c1nc2cc(Cl)ccc2[nH]1)C(C)(C)C)[C@H](O)C(=O)NO` [Example 86, N-[1(S)-(5-chloro-2-benzimidazolyl)-2,2,2-trimethylethyl]-[3-(N-hydroxyaminocarbonyl)-3(S)-hydroxy-2(R)-isobutyl]propanamide] displayed a Cmax of 960 nM.

A word on the Km: it is the substrate concentration at which the rate is half of its maximum. For the compound “bisacetylated substrate: bisacetylated derivative of peptide substrate substance P (Arg-Pro-Lys-Pro-Gln-Gln-Phe-Phe-Gly-Leu-Met), cleaved by MMP-3”, in data set [2], the Km was determined as 769 ± 52 µM and the Vmax is reported as 0.090±0.003 nmoles 7-11 peptide/min.
